| melting point [°C] | Compound |
| --- | --- |
| 161 to 165 | O=c1c2c(CCc3ccncc3)n[nH]c2c2cccnc2n1-c1cccc([N+](=O)[O-])c1 |
| 113 to 116 | CS(=O)(=O)c1nccc(Oc2ccccc2)n1 |
| 215 to 216 | CSc1nc(C(F)(F)F)c(Br)c(=O)[nH]1 |
| 256 to 258 | CCOC(=O)c1cc2cc(NC(C)=O)ccc2nn1 |
| 113 to 115 | O=C(Oc1ccc(Oc2ccccc2)cc1)Oc1ccc([N+](=O)[O-])cc1 |
| 171 to 177 | CS(=O)(=O)c1ccc(-c2ccc3cnc(Nc4ccc(N5CCOCC5)nc4)nn23)cc1 |
| 75 to 80 | CCCNC(=O)c1ccc2c(c1)N(C(C)CN1CCCC1)c1ccccc1S2 (racemic) |
| 295 to 296 | O=c1[nH]c2scc(Br)c2[nH]c1=O |
| 123 to 124 | Cc1oc(-c2ccco2)nc1CCc1ccc(CCCC2OC(=O)NC2=O)cc1 (stereo not given) |
| 99 to 101 | CN(C)C(=O)OCCn1nc(-c2cc(C(C)(C)C)c(O)c(C(C)(C)C)c2)c2cccnc21 |
| 176 to 177 | CCOC(=O)c1nnc(-c2cc3cccc(N(C)S(=O)(=O)c4cccs4)c3[nH]2)s1 |
| 131 to 133 | CC(C)(C)OC(=O)N1CCN(c2nccc(Oc3ccc(NC(=O)c4cc(F)cc(N5CCOCC5)c4)c4ccccc34)n2)CC1 |
| 169 to 171 | CN(C(=O)c1ccc2nonc2c1)C1CCOC(=O)C1 (stereo not given) |
| 222 | CC(C)(C)C1=NN(c2ccc(C(=O)O)cc2)C(c2ccc(Br)cc2)C1 (stereo not given) |
| 191 to 192 | O=C([C@H]1CC[C@H](Nc2nccc(-n3ncc4ccccc43)n2)CC1)N1CCOCC1 |
| 158 to 161 | CCc1nccc(NC(=O)Cc2ccc(O)cc2)c1Cl |
| 174 to 176 | C/C(=N\OCCCOc1ccc(C(=O)O)c(NC(=O)c2ccc(C(F)(F)F)cc2)c1)c1ccccc1 |
| 61.5 to 62.7 | CC(C)(C)c1ccc(N)cn1 |
| 104 | CCOC(=O)NN=COC(CC)NC (stereo not given) |
| 115 to 116 | CCON=C(CC)C1=C(O)CC(c2ccc(NS(C)(=O)=O)cc2)CC1=O (stereo not given) |
| 87 to 89 | CC(=O)SCC(C(=O)NCCc1ccncc1)C(F)(F)F (stereo not given) |
| 176 to 178 | Cc1ccc2cccc(OCc3cc(N)ccc3Cl)c2n1 |
| 181 | CCOC(=O)C1=C(N)OC(C)=C(C(C)=O)C1c1cccc([N+](=O)[O-])c1 (stereo not given) |

| melting point [°C] | Compound |
| --- | --- |
| 144 to 145 | c1ccc(COc2ccc(-c3nc(COc4cccc(CCCn5ccnc5)c4)co3)cc2)cc1 |
| 296 to 298 | O=C(c1cccc(F)c1)N1CCC2(CCn3c(nc(-c4ccncn4)cc3=O)N2)C1 (stereo not given) |
| 77 to 77.5 | CC(C)=C1CCC2(C1)C(=O)C=C(OC(C)C)CC2C (stereo not given) |
| 163 to 165 | COc1cc(S(=O)(=O)N2CCN(C(=O)C=C(c3ccccc3)c3ccccc3)CC2)cc(OC)c1OC |
| 103 to 104 | O=C(O)c1ccc2c(c1)Sc1cc3c(cc1C=C2)CCC3 |
| 131 to 133 | CCN1NC=C2C1=NC=CC2(ON=C(C)C)C(O)c1ccccn1 (stereo not given) |
| 180 to 186 | COc1cc(CCN2CCc3cc(O)ccc3C2)cc(OC)c1OC |
| 216 to 218 | O=C(O)Cc1c(-c2cccs2)nn(-c2ccccc2)c1-c1cccs1 |
| 83 to 84 | CC(C)(C)c1csc(-c2cc3cc(C=O)ccc3o2)n1 |
| 181 | Cc1c(C(=O)Nc2ccc(N3CCC(NCCO)CC3)c(C#N)c2)cnn1-c1ccc(Cl)cc1 |
| 213 to 215 | COC(=O)c1ccc(-c2ccc3nnn(Cc4cc5cccnc5cc4F)c3n2)cc1F |
| 122 to 123 | CCC(O)(CCC(N)=O)c1ccc(Br)cc1 (stereo not given) |
| 184 to 185 | Cc1nccn1-c1ccc(Sc2cccc(C3(C(N)=O)CCOCC3)c2)cc1 |
| 205 to 207 | CCOC(=O)C1=C(C)NC(C)=C(C(=O)OCC)C1c1ccccc1/C=C(\C)C(=O)O |
| 221 to 225 | CS(=O)(=O)Nc1ccc(NC(=O)C(=O)N2CCC(Cc3ccccc3)CC2)cc1 |
| 54 to 56 | N=C(N)c1ccc2c(c1)C(CCNC(=O)c1ccc(-c3ccccn3)s1)CO2 (stereo not given) |
| 54 | CCCCOC(=O)[C@@H]1OC(c2ccc(C#Cc3ccc(C4O[C@@H](C(=O)OCCCC)[C@H](C(=O)OCCCC)O4)cc3)cc2)O[C@H]1C(=O)OCCCC |
| 210 to 213 | COc1cc2c(cc1OC)C(=O)C(=CC=Cc1ccc(N(C)C)cc1)C2 |
| 85 to 86 | CCCCCCCC[C@H](N[C@@H](C)C(=O)N1C(=O)N(C)C[C@H]1C(=O)O)C(=O)OCC |
| 225 to 227 | CC(=O)NCC1CN(c2ccc(N3CCN(C4=NC(=O)CS4)CC3)c(F)c2)C(=O)O1 (stereo not given) |
| 153 to 154 | Cc1nn(-c2ccccn2)c2nc3ccccc3cc12 |
| 102 to 103 | O=C(O)CCc1ccc(CCNS(=O)(=O)c2ccccc2)cc1 |
| 82 to 84 | N=C(N)NC(=O)Cn1c(Cc2ccccc2)ccc1-c1ccccc1 |

| melting point [°C] | Compound |
| --- | --- |
| 96 to 98 | O=C(O[C@H]1Cc2c(O)cc(O)cc2O[C@@H]1c1ccc(O)cc1)c1cc(O)c(O)c(O)c1 |
| 212 to 214 | O=C(O)c1cccc2cc(-c3ccccc3)oc12 |
| 108 to 110 | COc1ccc(C(C#N)Sc2ccccn2)cc1OC (stereo not given) |
| 86.5 to 88 | CCOC(=O)C(=NO)C(=O)OCC |
| 102 to 103 | CCN(CC)CCOC(=O)c1nn(-c2ccc(Cl)cc2)c2c1CCc1ccccc1-2 |
| 295 | CC(=O)Nc1cccc(Oc2c(N)cc(C(=O)O)cc2S(N)(=O)=O)c1 |
| 189 to 190 | Cc1nnc(Sc2nc3ccc(Cl)cc3nc2C)s1 |
| 87 to 90 | O=C1SC[C@@H](CO)N1Cc1ccccc1 |
| 136 to 138 | CCc1cncnc1Nc1ccc(C(=O)CCC2CCN(Cc3ccccc3)CC2)cc1 |
| 206 to 207 | O=C(NCc1ccccn1)Nc1cc(N2C(=O)COc3ccccc32)ccn1 |
| 155 to 157 | CC1CCCN1C1CCN(c2ccc(CC(=O)NC3CCOCC3)cc2)C1 (stereo not given) |
| 186 | Cn1cncc1C(O)c1ccc2[nH]c(=O)cc(-c3cccc(Cl)c3)c2c1 (stereo not given) |
| 192 to 193 | Cn1nc2c(-c3ccc(Cl)cc3Cl)cccc2c1CCC#N |
| 180 to 181 | O=C(O)c1ccc(NCCCOc2ccc(Cl)cc2)cc1 |
| 110 | N#CC(C#N)(OC(=O)c1ccc(Cl)c(Cl)c1)c1ccc(Cl)c(Cl)c1 |
| 150 to 152 | COC(=O)N1CCC(C2(NO)OCCO2)C(=O)C1 (stereo not given) |
| 158 to 159 | CN(C[C@H](O)c1cccc(OCC(=O)O)c1)c1cnc(-c2ccccc2)c(-c2ccccc2)n1 |
| 266 to 271 | O=C1NC(=O)c2c1c(-c1ccc(CO)cc1)cc1[nH]c3ccc(O)cc3c21 |
| 185 to 189 | COc1ccc(N2CCOCC2)c2sc(NC(=O)N3CC4CC[C@@](C)(C3)C4(C)C)nc12 |
| 134 to 135 | COC(=O)CCNC1(C)CCN(c2ncc3ncnc(Nc4ccc(F)c(Cl)c4)c3n2)CC1 |
| 131 | CC(C)(C)OC(=O)Nc1ccc(C#Cc2nccs2)cc1NC(=O)CC(=O)c1cccc(C#N)c1 |
| 54 to 56 | Cc1cc(C)c(/C=C/C2OCC(C)(C)CO2)c(Br)c1 |

| Compound | melting point [°C] |
| --- | --- |
| COc1ccc(C(C)(C)O)cc1CN[C@H]1CN2CC[C@H]1[C@H](C(=O)O)[C@@H]2C(c1ccccc1)c1ccccc1 | 150 to 153 |
| COc1cccc2c1OC(CN1CC=C(c3c[nH]c4ccc(C#N)cc34)CC1)CO2 (stereo not given) | 235 to 238 |

— a melting point compilation (Tetko et al.; mined from patent text by program, amines drawn as free bases though some values may be those of a salt)
